Data from patent US20210196724A1, “BIARYL COMPOSITIONS AND METHODS FOR MODULATING A KINASE CASCADE” (Athenex, Inc., priority 2016, published 2021).

Columns and labels:
Type in all cases: cell-based
TJ905 cells = experiment: CellTiter-Glo cell viability, TJ905; conditions: 72 h
Experimental: (§1) The cell viability of 50 cancer cell lines was studied after treatment with Compound 121. Inhibition concentration values at 50% (IC50) were determined using CellTiter-Glo luminescent cell viability assay after incubation with different compound concentrations. GI50 values were determined according to the examples described above. Each cell line was treated with Compound 121, a standard chemotherapy drug as a reference control, and culture medium as a vehicle control.
(§2) All cells were cultured in media supplemented with 10-15% FBS at 37° C. in the presence of 5% CO2 and at 95% humidity. The culture medium was purchased from GIBCO or Sigma, USA. Cisplatin was chosen as the reference control and purchased from Hospira Australia Pty Ltd. The cell lines studied are presented in Table 5.
(§3) Cells were harvested during a logarithmic growth period and cell number count was determined using Count-star. Cell concentrations were adjusted to 4.44×10^4 cells/mL with respective culture medium. 90 μL of cell suspensions were added to two 96-well plates (plates A and B) with a final cell density of 4×10^3 cells/well.
(§4) 10 μL of culture medium was added to each well of plate A for TO reading. The plate was allowed to equilibrate at room temperature for approximately 30 min. 50 μL of CellTiter-Glo was added to each well and the contents were mixed for 5 min on an orbital shaker to induce cell lysis. The plate was allowed to incubate at room temperature for 20 min to stabilize luminescent signal.
(§5) 10 μM Compound 121 in media was serially diluted 3.16-fold to achieve 9 dose levels. Similarly, 100 μM reference control in media was serially diluted 3.16-fold to prepare reference control solutions. 10 μL drug solution and 10 μL of reference control was dispensed into each well in plate B.
(§6) Test plate B was incubated for 72 h in a humidified incubator at 37° C. in the presence of 5% CO2 and then subjected to CTG assay. The plate was allowed to equilibrate at room temperature for about 30 min. 50 μL of CellTiter-Glo was added to each well and the contents were mixed for 5 min on an orbital shaker to induce cell lysis. The plate was allowed to incubate at room temperature for 20 min to stabilize luminescent signal.
(§7) IC50 and GI50 values for each of the 50 cell lines are presented in Table 6 and were calculated based on the dose-response curves depicted in FIGS. 1-50. The dose-response curves were fitted using nonlinear regression model with a sigmoidal dose response. The formula for calculating survival rate was calculated by the formula:
(§8) Survival rate (%)=(LumTest article−LumMedium control)/(LumNone treated−LumMedium control)×100.

Molt-4 cells = experiment: CellTiter-Glo cell viability, Molt-4; conditions: Homo sapiens, 72 h
Experimental: as §1, §2, §3, §4, §5, §6, §7, §8

SK-N-FI cells = experiment: CellTiter-Glo cell viability, SK-N-FI; conditions: Homo sapiens, 72 h
Experimental: as §1, §2, §3, §4, §5, §6, §7, §8

NCI-H226 cells = experiment: CellTiter-Glo cell viability, NCI-H226; conditions: Homo sapiens, 72 h
Experimental: as §1, §2, §3, §4, §5, §6, §7, §8

NCI-N87 cells = experiment: CellTiter-Glo cell viability, NCI-N87; conditions: Homo sapiens, 72 h
Experimental: as §1, §2, §3, §4, §5, §6, §7, §8

U251 cells = experiment: CellTiter-Glo cell viability, U251; conditions: Homo sapiens, U-251, 72 h
Experimental: as §1, §2, §3, §4, §5, §6, §7, §8

MDA-MB-468 cells = experiment: CellTiter-Glo cell viability, MDA-MB-468; conditions: Homo sapiens, 72 h
Experimental: as §1, §2, §3, §4, §5, §6, §7, §8

SW579 cells = experiment: CellTiter-Glo cell viability, SW579; conditions: 72 h
Experimental: as §1, §2, §3, §4, §5, §6, §7, §8

FaDu cells = experiment: CellTiter-Glo cell viability, FaDu; conditions: Homo sapiens, 72 h
Experimental: as §1, §2, §3, §4, §5, §6, §7, §8

AN3 CA cells = experiment: CellTiter-Glo cell viability, AN3 CA; conditions: Homo sapiens, 72 h
Experimental: as §1, §2, §3, §4, §5, §6, §7, §8

RPMI 8226 cells = experiment: CellTiter-Glo cell viability, RPMI 8226; conditions: Homo sapiens, 72 h
Experimental: as §1, §2, §3, §4, §5, §6, §7, §8

HuCCT1 cells = experiment: CellTiter-Glo cell viability, HuCCT1; conditions: Homo sapiens, HuCCT-1, 72 h
Experimental: as §1, §2, §3, §4, §5, §6, §7, §8

SK-MEL-28 cells = experiment: CellTiter-Glo cell viability, SK-MEL-28; conditions: Homo sapiens, 72 h
Experimental: as §1, §2, §3, §4, §5, §6, §7, §8

HCT-116 cells = experiment: CellTiter-Glo cell viability, HCT-116; conditions: Homo sapiens, 72 h
Experimental: as §1, §2, §3, §4, §5, §6, §7, §8

MDA-MB-231 cells = experiment: CellTiter-Glo cell viability, MDA-MB-231; conditions: Homo sapiens, 72 h
Experimental: as §1, §2, §3, §4, §5, §6, §7, §8

AsPC-1 cells = experiment: CellTiter-Glo cell viability, AsPC-1; conditions: Homo sapiens, ASPC1, 72 h
Experimental: as §1, §2, §3, §4, §5, §6, §7, §8

KYSE-150 cells = experiment: CellTiter-Glo cell viability, KYSE-150; conditions: Homo sapiens, 72 h
Experimental: as §1, §2, §3, §4, §5, §6, §7, §8

K-562 cells = experiment: CellTiter-Glo cell viability, K-562; conditions: Homo sapiens, K562, 72 h
Experimental: as §1, §2, §3, §4, §5, §6, §7, §8

Raji cells = experiment: CellTiter-Glo cell viability, Raji; conditions: Homo sapiens, 72 h
Experimental: as §1, §2, §3, §4, §5, §6, §7, §8

BT474 cells = experiment: CellTiter-Glo cell viability, BT474; conditions: Homo sapiens, BT-474, 72 h
Experimental: as §1, §2, §3, §4, §5, §6, §7, §8

JEG-3 cells = experiment: CellTiter-Glo cell viability, JEG-3; conditions: Homo sapiens, 72 h
Experimental: as §1, §2, §3, §4, §5, §6, §7, §8

[1] = top conc. 10 μM Compound 121, 100 μM cisplatin

Cc1cc(N2CCOC[C@@H]2C)ccc1-c1ccc(CC(=O)NCc2ccc(F)cc2)nc1 [Compound 121]
GI50 (TJ905 cells; read-out: Absolute GI50): 4 nM | IC50 (TJ905 cells; read-out: Absolute IC50): 4 nM | inhibition at 10 µM (TJ905 cells; [1]): 70% | GI50 (Molt-4 cells; read-out: Absolute GI50): 13 nM | IC50 (Molt-4 cells; read-out: Absolute IC50): 14 nM | inhibition at 10 µM (Molt-4 cells; [1]): 99.6% | GI50 (SK-N-FI cells; read-out: Absolute GI50): 3 nM | IC50 (SK-N-FI cells; read-out: Absolute IC50): 4 nM | inhibition at 10 µM (SK-N-FI cells; [1]): 91.4% | GI50 (NCI-H226 cells; read-out: Absolute GI50): 10 nM | IC50 (NCI-H226 cells; read-out: Absolute IC50): 13 nM | inhibition at 10 µM (NCI-H226 cells; [1]): 61.7% | GI50 (NCI-N87 cells; read-out: Absolute GI50): 4 nM | IC50 (NCI-N87 cells; read-out: Absolute IC50): 4 nM | inhibition at 10 µM (NCI-N87 cells; [1]): 49.6% | GI50 (U251 cells; read-out: Absolute GI50): 9 nM | IC50 (U251 cells; read-out: Absolute IC50): 9 nM | inhibition at 10 µM (U251 cells; [1]): 75% | GI50 (MDA-MB-468 cells; read-out: Absolute GI50): 7 nM | IC50 (MDA-MB-468 cells; read-out: Absolute IC50): 9 nM | inhibition at 10 µM (MDA-MB-468 cells; [1]): 80% | GI50 (SW579 cells; read-out: Absolute GI50): 6 nM | IC50 (SW579 cells; read-out: Absolute IC50): 7 nM | inhibition at 10 µM (SW579 cells; [1]): 88.2% | GI50 (FaDu cells; read-out: Absolute GI50): 7 nM | IC50 (FaDu cells; read-out: Absolute IC50): 8 nM | inhibition at 10 µM (FaDu cells; [1]): 85.9% | GI50 (AN3 CA cells; read-out: Absolute GI50): 5 nM | IC50 (AN3 CA cells; read-out: Absolute IC50): 5 nM | inhibition at 10 µM (AN3 CA cells; [1]): 98.6% | GI50 (RPMI 8226 cells; read-out: Absolute GI50): 5 nM | IC50 (RPMI 8226 cells; read-out: Absolute IC50): 6 nM | inhibition at 10 µM (RPMI 8226 cells; [1]): 94.8% | GI50 (HuCCT1 cells; read-out: Absolute GI50): 4 nM | IC50 (HuCCT1 cells; read-out: Absolute IC50): 4 nM | inhibition at 10 µM (HuCCT1 cells; [1]): 54% | GI50 (SK-MEL-28 cells; read-out: Absolute GI50): 4 nM | IC50 (SK-MEL-28 cells; read-out: Absolute IC50): > 10000 nM | inhibition at 10 µM (SK-MEL-28 cells; [1]): 52.9% | GI50 (HCT-116 cells; read-out: Absolute GI50): 9 nM | IC50 (HCT-116 cells; read-out: Absolute IC50): 9 nM | inhibition at 10 µM (HCT-116 cells; [1]): 94.4% | GI50 (MDA-MB-231 cells; read-out: Absolute GI50): 20 nM | IC50 (MDA-MB-231 cells; read-out: Absolute IC50): > 10000 nM | inhibition at 10 µM (MDA-MB-231 cells; [1]): 45.8% | GI50 (AsPC-1 cells; read-out: Absolute GI50): 12 nM | IC50 (AsPC-1 cells; read-out: Absolute IC50): > 10000 nM | inhibition at 10 µM (AsPC-1 cells; [1]): 51.2% | GI50 (KYSE-150 cells; read-out: Absolute GI50): 5 nM | IC50 (KYSE-150 cells; read-out: Absolute IC50): 6 nM | inhibition at 10 µM (KYSE-150 cells; [1]): 80% | GI50 (K-562 cells; read-out: Absolute GI50): 6 nM | IC50 (K-562 cells; read-out: Absolute IC50): 6 nM | inhibition at 10 µM (K-562 cells; [1]): 98.1% | GI50 (Raji cells; read-out: Absolute GI50): 5 nM | IC50 (Raji cells; read-out: Absolute IC50): 5 nM | inhibition at 10 µM (Raji cells; [1]): 94.2% | GI50 (BT474 cells; read-out: Absolute GI50): 12 nM | IC50 (BT474 cells; read-out: Absolute IC50): > 10000 nM | inhibition at 10 µM (BT474 cells; [1]): 37.9% | GI50 (JEG-3 cells; read-out: Absolute GI50): 8 nM | IC50 (JEG-3 cells; read-out: Absolute IC50): 9 nM | inhibition at 10 µM (JEG-3 cells; [1]): 86.5%
